Assay results published in US8785488B2 (Exelixis Patent Company LLC, priority 2009, dated 2014).

Key:
human TGR5 (h-TGR5) = target: T1, human TGR5 (h-TGR5) (Homo sapiens, UniProt Q8TDU6); assay: TGR5/CRE-Luciferiase Assay (HEK 293 hTGR5/CRE-Luc cells); format: cell-based; details: h-TGR5 CRE-Luc EC50, Table 1; read-out: CRE-Luc (EC50)
T1 construct: expressed in transfected cells
T1 sequence (Q8TDU6 1-330): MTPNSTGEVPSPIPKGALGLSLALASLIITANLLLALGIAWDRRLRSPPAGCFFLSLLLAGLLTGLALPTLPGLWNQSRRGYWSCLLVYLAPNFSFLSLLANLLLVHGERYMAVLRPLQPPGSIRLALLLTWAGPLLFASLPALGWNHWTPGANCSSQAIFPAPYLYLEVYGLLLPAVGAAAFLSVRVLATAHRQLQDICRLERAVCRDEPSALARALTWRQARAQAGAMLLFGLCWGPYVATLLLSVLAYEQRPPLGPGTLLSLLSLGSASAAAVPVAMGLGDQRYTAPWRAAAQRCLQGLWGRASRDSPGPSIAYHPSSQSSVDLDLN
Summary of the method: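 HEK293 cells stably carrying hTGR5 and a CRE-luciferase reporter were exposed to serially diluted compounds (diluted in DMEM with 5% DMSO) for 6 h. Cells were then lysed in luciferase buffer, luminescence was read, and EC50 values were derived from dose-response curves.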

h-TGR5 = target: T2, h-TGR5 (Homo sapiens, UniProt Q8TDU6); assay: TGR5 cAMP Assay using Cisbio cAMP Dynamic2 htrf kit (hTGR5CRE-luc HEK 293 cells); format: cell-based; details: h-TGR5 cAMP EC50, Table 1; read-out: cAMP (EC50)
T2 construct: expressed in transfected cells
T2 sequence (Q8TDU6 1-330): T1 sequence (Q8TDU6 1-330)
Summary of the method: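 […], 4000 hTGR5CRE-luc HEK 293 cells per well, with 0.5 mM IBMX and d2-cAMP, were incubated 30 min at room temperature with compounds in 8-point half-log series, in quadruplicate.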

Row | SMILES | EC50 (human TGR5 (h-TGR5)) [nM] | EC50 (h-TGR5) [nM]
1 | COc1ccc(C(C)(C)c2cnc(SCc3ccc(S(=O)(=O)NC(=O)NN4CCCC4)cc3Cl)n2-c2ccc(F)c(C)c2)cc1Cl [3-chloro-4-({[5-{1-[3-chloro-4-(methyloxy)phenyl]-1-methylethyl}-1-(4-fluoro-3-methylphenyl)-1H-imidazol-2-yl]thio}methyl)-N-[(pyrrolidin-1-ylamino)carbonyl]benzenesulfonamide] | 100 to 1000 | 100 to 1000
2 | COc1ccc(C(C)(C)c2cnc(SCc3c(F)cc(C(=O)O)cc3Cl)n2-c2ccc(F)cc2)cc1Cl [3-chloro-4-({[5-{1-[3-chloro-4-(methyloxy)phenyl]-1-methylethyl}-1-(4-fluorophenyl)-1H-imidazol-2-yl]thio}methyl)-5-fluorobenzoic acid] | < 100 | < 100
3 | COc1ccc(C(C)(C)c2cnc(SCc3ccc(S(=O)(=O)NC(=O)NN4CCCC4)cc3Cl)n2-c2ccc(F)cc2)cc1Cl [3-chloro-4-({[5-{1-[3-chloro-4-(methyloxy)phenyl]-1-methylethyl}-1-(4-fluorophenyl)-1H-imidazol-2-yl]thio}methyl)-N-[(pyrrolidin-1-ylamino)carbonyl]benzenesulfonamide] | 100 to 1000 | 100 to 1000
4 | COc1ccc(C(C)(C)c2cnc(SCc3ccc(S(=O)(=O)NC(=O)NC(C)C)cc3Cl)n2-c2ccc(F)cc2)cc1Cl [3-chloro-4-({[5-{1-[3-chloro-4-(methyloxy)phenyl]-1-methylethyl}-1-(4-fluorophenyl)-1H-imidazol-2-yl]thio}methyl)-N-{[(1-methylethyl)amino]carbonyl}benzenesulfonamide] | 100 to 1000 | 100 to 1000
5 | COc1ccc(C(C)(C)c2cnc(SCc3ccc(S(N)(=O)=O)cc3Cl)n2-c2ccc(F)cc2)cc1Cl [3-chloro-4-({[5-{1-[3-chloro-4-(methyloxy)phenyl]-1-methylethyl}-1-(4-fluorophenyl)-1H-imidazol-2-yl]thio}methyl)benzenesulfonamide] | < 100 | < 100
6 | CC(C)(c1ccc(C(F)F)c(F)c1)c1cnc(SCc2ccc(S(=O)(=O)NC(=O)NN3CCCC3)cc2Cl)n1-c1ccc(F)cc1 [3-chloro-4-({[5-{1-[4-(difluoromethyl)-3-fluorophenyl]-1-methylethyl}-1-(4-fluorophenyl)-1H-imidazol-2-yl]thio}methyl)-N-[(pyrrolidin-1-ylamino)carbonyl]benzenesulfonamide] | 100 to 1000 | 100 to 1000
7 | CC(C)NC(=O)NS(=O)(=O)c1ccc(CSc2ncc(C(C)(C)c3ccc(C(F)F)c(F)c3)n2-c2ccc(F)cc2)c(Cl)c1 [3-chloro-4-({[5-{1-[4-(difluoromethyl)-3-fluorophenyl]-1-methylethyl}-1-(4-fluorophenyl)-1H-imidazol-2-yl]thio}methyl)-N-{[(1-methylethyl)amino]carbonyl} benzenesulfonamide] | 100 to 1000 | 100 to 1000
8 | COc1cc(C(C)(C)c2cnc(SCc3ccc(S(=O)(=O)NC(=O)NN4CCCC4)cc3Cl)n2-c2ccc(F)cc2F)ccc1Cl [3-chloro-4-({[5-{1-[4-chloro-3-(methyloxy)phenyl]-1-methylethyl}-1-(2,4-difluorophenyl)-1H-imidazol-2-yl]thio}methyl)-N-[(pyrrolidin-1-ylamino)carbonyl]benzenesulfonamide] | 100 to 1000 | 100 to 1000
9 | COc1cc(C(C)(C)c2cnc(SCc3ccc(S(=O)(=O)NC(=O)NN4CCCC4)cc3Cl)n2-c2ccc(F)c(F)c2)ccc1Cl [3-chloro-4-({[5-{1-[4-chloro-3-(methyloxy)phenyl]-1-methylethyl}-1-(3,4-difluorophenyl)-1H-imidazol-2-yl]thio}methyl)-N-[(pyrrolidin-1-ylamino)carbonyl]benzenesulfonamide] | 100 to 1000 | 100 to 1000
10 | COc1cc(C(C)(C)c2cnc(SCc3ccc(S(=O)(=O)NC(=O)NN4CCCC4)cc3Cl)n2-c2ccc(F)c(C)c2)ccc1Cl [3-chloro-4-({[5-{1-[4-chloro-3-(methyloxy)phenyl]-1-methylethyl}-1-(4-fluoro-3-methylphenyl)-1H-imidazol-2-yl]thio}methyl)-N-[(pyrrolidin-1-ylamino)carbonyl]benzenesulfonamide] | < 100 | 100 to 1000
11 | COc1cc(C(C)(C)c2cnc(COc3c(F)cc(C(=O)O)cc3Cl)n2-c2ccc(F)cc2)ccc1Cl [3-chloro-4-({[5-{1-[4-chloro-3-(methyloxy)phenyl]-1-methylethyl}-1-(4-fluorophenyl)-1H-imidazol-2-yl]methyl}oxy)-5-fluorobenzoic acid] | 100 to 1000 | 100 to 1000
12 | COc1cc(C(C)(C)c2cnc(SCc3c(F)cc(C(=O)Nc4nnn[nH]4)cc3Cl)n2-c2ccc(F)cc2)ccc1Cl [3-chloro-4-({[5-{1-[4-chloro-3-(methyloxy)phenyl]-1-methylethyl}-1-(4-fluorophenyl)-1H-imidazol-2-yl]thio}methyl)-5-fluoro-N-1H-tetrazol-5-ylbenzamide] | < 100 | < 100
13 | COCCOCCOCCOCCOCCOCCOCCOCCOCCOCCOCCOCCOCCOCCNS(=O)(=O)c1cc(F)c(CSc2ncc(C(C)(C)c3ccc(Cl)c(OC)c3)n2-c2ccc(F)cc2)c(Cl)c1 [3-chloro-4-({[5-{1-[4-chloro-3-(methyloxy)phenyl]-1-methylethyl}-1-(4-fluorophenyl)-1H-imidazol-2-yl]thio}methyl)-5-fluoro-N-3,6,9,12,15,18,21,24,27,30,33,36, 39,42-tetradecaoxatritetracont-1-ylbenzenesulfonamide] | < 100 | < 100
14 | COc1cc(C(C)(C)c2cnc(SCc3c(F)cc(C(=O)NC4CCN(c5nnn[nH]5)CC4)cc3Cl)n2-c2ccc(F)cc2)ccc1Cl [3-chloro-4-({[5-{1-[4-chloro-3-(methyloxy)phenyl]-1-methylethyl}-1-(4-fluorophenyl)-1H-imidazol-2-yl]thio}methyl)-5-fluoro-N-[1-(1H-tetrazol-5-yl)piperidin-4-yl]benzamide] | < 100 | < 100
15 | COc1cc(C(C)(C)c2cnc(SCc3c(F)cc(N)cc3Cl)n2-c2ccc(F)cc2)ccc1Cl [3-chloro-4-({[5-{1-[4-chloro-3-(methyloxy)phenyl]-1-methylethyl}-1-(4-fluorophenyl)-1H-imidazol-2-yl]thio}methyl)-5-fluoroaniline] | < 100 | < 100
16 | COc1cc(C(C)(C)c2cnc(SCc3c(F)cc(S(=O)(=O)O)cc3Cl)n2-c2ccc(F)cc2)ccc1Cl [3-chloro-4-({[5-{1-[4-chloro-3-(methyloxy)phenyl]-1-methylethyl}-1-(4-fluorophenyl)-1H-imidazol-2-yl]thio}methyl)-5-fluorobenzenesulfonic acid] | < 100 | < 100
17 | COc1cc(C(C)(C)c2cnc(SCc3c(F)cc(C(=O)O)cc3Cl)n2-c2ccc(F)cc2)ccc1Cl [3-chloro-4-({[5-{1-[4-chloro-3-(methyloxy)phenyl]-1-methylethyl}-1-(4-fluorophenyl)-1H-imidazol-2-yl]thio}methyl)-5-fluorobenzoic acid] | < 100 | < 100
18 | COc1cc(C(C)(C)c2cnc(SCc3ccc(S(=O)(=O)NC(=O)Nc4nccs4)cc3Cl)n2-c2ccc(F)cc2)ccc1Cl [3-chloro-4-({[5-{1-[4-chloro-3-(methyloxy)phenyl]-1-methylethyl}-1-(4-fluorophenyl)-1H-imidazol-2-yl]thio}methyl)-N-[(1,3-thiazol-2-ylamino)carbonyl]benzenesulfonamide] | 100 to 1000 | 100 to 1000
19 | COc1cc(C(C)(C)c2cnc(SCc3ccc(S(=O)(=O)NC(=O)Nn4cccc4)cc3Cl)n2-c2ccc(F)cc2)ccc1Cl [3-chloro-4-({[5-{1-[4-chloro-3-(methyloxy)phenyl]-1-methylethyl}-1-(4-fluorophenyl)-1H-imidazol-2-yl]thio}methyl)-N-[(1H-pyrrol-1-ylamino)carbonyl]benzenesulfonamide] | 100 to 1000 | 100 to 1000
20 | COc1cc(C(C)(C)c2cnc(SCc3ccc(S(=O)(=O)NC(=O)NC4CCCC4)cc3Cl)n2-c2ccc(F)cc2)ccc1Cl [3-chloro-4-({[5-{1-[4-chloro-3-(methyloxy)phenyl]-1-methylethyl}-1-(4-fluorophenyl)-1H-imidazol-2-yl]thio}methyl)-N-[(cyclopentylamino)carbonyl] benzenesulfonamide] | < 100 | < 100
21 | COc1cc(C(C)(C)c2cnc(SCc3ccc(S(=O)(=O)NC(=O)NC4CC4)cc3Cl)n2-c2ccc(F)cc2)ccc1Cl [3-chloro-4-({[5-{1-[4-chloro-3-(methyloxy)phenyl]-1-methylethyl}-1-(4-fluorophenyl)-1H-imidazol-2-yl]thio}methyl)-N-[(cyclopropylamino)carbonyl] benzenesulfonamide] | < 100 | < 100
22 | CCNC(=O)NS(=O)(=O)c1ccc(CSc2ncc(C(C)(C)c3ccc(Cl)c(OC)c3)n2-c2ccc(F)cc2)c(Cl)c1 [3-chloro-4-({[5-{1-[4-chloro-3-(methyloxy)phenyl]-1-methylethyl}-1-(4-fluorophenyl)-1H-imidazol-2-yl]thio}methyl)-N-[(ethylamino)carbonyl]benzenesulfonamide] | 100 to 1000 | < 100
